One compound from US10351915B2 (Berg LLC, priority 2009, dated 2019) can be followed below.

The test system of assay [1] is HepG2 (liver cancer) cells. Briefly: PCR Diabetes Array. Format: cell-based. The conditions noted are these: 100 μM Q10, 48 hours. Here is the method: The treatment was initiated on 1×10^5 cells per well, following the procedure utilized in the PaCa2 cells (above, Examples 9-11). However, the total amount of RNA that was extracted from these samples was lower than expected. Reverse transcription is normally done using 1 μg total RNA (determined by measurement at 260 nm). The maximum volume that can be used per reverse transcription is 8 μl.

In a further assay the test system is HASMC cells. Nature of the assay: Extracellular acidification rate (ECAR), SeaHorse XF analyzer. Format: cell-based, human. The conditions noted are these: hyperglycemic, hypoxic conditions. The text has this:
(SeaHorse Biosciences Inc, North Billerica, Mass.).
In this experiment, the OCR and extracellular acidification rate (ECAR) in normal cells lines were obtained in the presence and absence of CoQ10 to determine baseline values. It was observed that in its native nutrient environment, the basal OCR rates in normal cells lines are different, and are usually a function of the physiological roles of the cells in the body.
In Table 128 the measured baseline ECAR values (mpH/min) in HASMC were higher compared to that of HDFa. Induction of hypoxic conditions caused an increase in ECAR most likely associated with intracellular hypoxia induced acidosis secondary to increased glycolysis.

Assay [2] relates to Isocitrate Dehydrogenase-1 (IDH-1). Briefly: Western blot, IDH1 levels. Format: cell-based, human. Here is the method:
The whole cell pellets were resuspended one at a time in 1 mL of C7 buffer and transferred to labeled 15 mL tubes. The samples were then sonicated in the cold room on ice using 6 sonic pulses with the setting at #14. The samples were spun for a short time to 2500 g after sonication and the samples transferred to 2 ml tubes. The pH was verified of each sample (pH should be 9.0) using the foam remaining in the […] sample tubes.
Alkylation and reduction of samples was performed for each sample by adding 10 ul of 1M acrylamide, 25 ul of tributylphoshene and incubation for 90 mins with intermittent mixing. After incubation, 10 ul of 1M DTT was added and the tubes were spun at 20,000 g at 20 deg C. for 10 minutes and transferred the supernatant to labeled Amicon Ultra centrifugal filter units with a 10 k cut off (Millipore catalog # UFC 801024). The samples were spun for 15 minutes at 2500 g in 2 intervals. The conductivity was measured for Chaps alone as well as the samples using a conductivity meter. If the conductivity of samples is high, then 1 ml of chaps was added for buffer exchange and spun again at 2500 g until the volume was down to 250 ul. When the conductivity was 200 or less the samples were spun in 5 min intervals at 2500 g until the volume of the supernatant was between 150-100 ul. The sample supernatants were transferred to eppendorf tubes and Bradford assay was performed using BSA as standard.
The samples were processed as per standard protocols as described above and the amount of protein in each of the samples was determined by Bradford assay. Sample volumes equivalent to 10 ug of protein were prepared as shown below with Lamelli Loading dye (LDS) and MilliQ water were run on a 4-12% Bis-Tris Novex NuPAGE gel (Invitrogen, cat # NP0323Box)
The gels were run for 50 minutes using 1×MOPS buffer using a NOVEX Xcell Surelock system at 200 V. The gels were then transferred for 1 hour using a NOVEX Xcell Surelock wet transfer protocol at 30 V. The blots were stained with Simply Blue Safestain from Invitrogen (LC6065).
After transfer each of the blots was placed in between 2 Whatman Filter papers and dried for 15-20 minutes. After drying the blots were labeled with the date, the type of samples and either blot 1 or blot 2 using a HB pencil. The molecular weight markers were outlined with the pencil and with single lines for the blue and a doublet for the colored markers. The blots were activated with methanol for 5 seconds, washed with water for 5 minutes, and TBST for 15 minutes. The blots were blocked for 1 hour with 5% blocking reagent in TBS-T at room temperature and then washed 3 times with TBS-T (1×-15′; 2×5′ each). […]

Another assay relates to SKMEL-28 mitochondria. Briefly: 2-D gel electrophoresis of mitochondria enriched samples. Format: cell-based.
A further assay relates to MCF-7. Nature of the assay: Nexin assay for apoptosis (flow cytometry). Particulars: 50 μM and 100 μM Q10, 24 hours. In kind it is cell-based. The text has this:
(§1) The 7AAD dye will enter into cells with permeabilized cell membranes; primarily those cells that are in late apoptosis. Annexin-V-PE is a dye that binds to Phosphotidyl serine, which is exposed on the outer surface of the plasma membrane in early apoptotic cells. The Nexin reagent thus can be used to differentiate between different populations of apoptotic cells in a flow cytometer.

For a further assay, the system named is SK-MEL28. Nature of the assay: Nexin assay for apoptosis (flow cytometry). Format: cell-based. The conditions noted are these: 50 μM and 100 μM Q10, 24 hours.
Source text: as §1

For the next assay, the system named is PC-3. Briefly: Nexin assay for apoptosis (flow cytometry). In kind it is cell-based. Particulars: 50 μM and 100 μM Q10, 24 hours.
Source text: as §1

Another assay concerns PaCa2. Nature of the assay: Nexin assay for apoptosis (flow cytometry). Format: cell-based. Particulars: 50 μM and 100 μM Q10, 24 hours.
Source text: as §1

Consider `COC1=C(OC)C(=O)C(C/C=C(\C)CC/C=C(\C)CC/C=C(\C)CC/C=C(\C)CC/C=C(\C)CC/C=C(\C)CC/C=C(\C)CC/C=C(\C)CC/C=C(\C)CCC=C(C)C)=C(C)C1=O` [Q10, Coenzyme Q10], for which, in assay [1], the “PPARGCIA mRNA” value is “normalized or were slightly upregulated”. Moreover, in the assay with HASMC cells, the ECAR rates result is reported as “downward trend of ECAR rates”. The “IDH1, Average Normalized Intensity” value in assay [2] (HDFa cells, HDF24-100 (HDF, Media = 346)) is on record as 600. In assay [2] (HDFa, nFIB and HASMC), the “expression pattern of IDH1” value is recorded as “did not demonstrate significant changes”. The “expression of IDH1” value in assay [2] (SCC25 cell lines) was “moderate increase in expression”; in assay [2] (cancer cell lines MCF-7, SKMEL28, HepG2 and PaCa-2), “increased expression”. Further, the “Response, direction” value with SKMEL-28 mitochondria (100 μM Q10, at 6 hr, protein spot 372) was “Up”. Also, the Response result in the assay with SKMEL-28 mitochondria (100 μM Q10, at 19 hr) is given as “Up only at 19 hr”; in the assay on SKMEL-28 mitochondria (100 μM Q10, at 48 hr), “Up at 48 hr”. Moreover, the apoptotic population result in the assay on MCF-7 and with SK-MEL28 was “an increase only in early apoptotic population” in each case. Further, the “early and late apoptotic population” value with PC-3 is “an increase in both early and late apoptotic population”. Also, the “increase in both early and late apoptotic cells” value in the assay on PaCa2 is recorded as 5-10 % of gated cells.
